What was measured:
[1] = tested on: serum IgE; assay: Determination of serum IgE levels (ELISA) in DNCB sensitized mice; assay type: in vivo; conditions: day 27, DNCB-sensitized BALB/c mice (DNCB saline group 1025.02±82.68), FIG. 3; combination = high dose, trial 8
Description: (§1) Balb/c mice were purchased from the Animal Center of Southern Medical University (Guangzhou, China). The animals were maintained under a 12-h light/dark cycle in a specific pathogen-free animal facility at a controlled temperature (20-25° C.) and humidity (50±5%). All mice were fed with regular diet and autoclaved water. All animal experiments in this study were approved by the Welfare and Ethical Committee for Experimental Animal Care of Southern Medical University. To induce AD-like symptom, dinitrochlorobenzene (DNCB) solution (dissolved in a 3:1 mixture of acetone and olive oil) was applied to the dorsal skin and ears of mice (female, 6-8 weeks old). One day after complete dorsal hair removal (approximately 4 cm^2), 150 μl of 2% DNCB solution was applied on the dorsal skin, and 10 μl each were applied to the back of both ears at day 1. Four days after sensitization, 0.5% DNCB dissolved in an acetone:olive oil mixture (3:1 vol/vol) is applied to challenge the dorsal skin (150 μl) and the back of both ears (10 μl each) once every two days, (days-27). OPN and 2-FL were dissolved in 0.9% normal saline. […]
Individual mouse serum was collected on the last day of the experiment. Serum levels of IgE were quantified using the commercial enzyme-linked immunosorbent assay (ELISA) kits (Invitrogen, San Diego, USA) according to the manufacturer's instructions. […]

[2] = tested on: DNCB-induced AD-like symptoms in BALB/c mice; assay: Evaluation of AD score / AD-like symptoms in DNCB-induced BALB/c AD model; assay type: in vivo; conditions: for severity of DNCB-induced AD-like symptoms: BALB/c mice, OPN 37.5 or 2.7 mg/kg(bw)/day, 2-FL 600 or 75 mg/kg(bw)/day, compared with saline-supplemented mice; for AD score (dermatitis score, AD-like symptoms): oral administration, DNCB-treated BALB/c mice, FIG. 1, combinations esp. trials 7 and 8 (high OPN)
Text: To investigate the potential therapeutic effect of OPN or 2-FL or an OPN/2FL combination on inflammation and emergence of atopic dermatitis (AD), BALB/c AD model was established by topical application of DNCB on each ear and the dorsal skin. Edema, excoriation, erythema, and scarring were apparent on the skin of DNCB sensitized mice after multiple challenged of DNCB. Strikingly, the severity of DNCB-induced AD-like symptoms in BALB/c mice was ameliorated upon supplementation with OPN (37.5 or 2.7 mg/kg(bw) day) and 2-FL (600 or 75 mg/kg(bw)·day) compared with saline-supplemented mice. Pruritus is an essential feature of AD. The scratching behaviour has already been established as an objective indicator to evaluate pruritus in animal model.
Balb/c mice were purchased from the Animal Center of Southern Medical University (Guangzhou, China). The animals were maintained under a 12-h light/dark cycle in a specific pathogen-free animal facility at a controlled temperature (20-25° C.) and humidity (50±5%). All mice were fed with regular diet and autoclaved water. All animal experiments in this study were approved by the Welfare and Ethical Committee for Experimental Animal Care of Southern Medical University. To induce AD-like symptom, dinitrochlorobenzene (DNCB) solution (dissolved in a 3:1 mixture of acetone and olive oil) was applied to the dorsal skin and ears of mice (female, 6-8 weeks old). One day after complete dorsal hair removal (approximately 4 cm^2), 150 μl of 2% DNCB solution was applied on the dorsal skin, and 10 μl each were applied to the back of both ears at day 1. Four days after sensitization, 0.5% DNCB dissolved in an acetone:olive oil mixture (3:1 vol/vol) is applied to challenge the dorsal skin (150 μl) and the back of both ears (10 μl each) once every two days, (days-27). OPN and 2-FL were dissolved in 0.9% normal saline. Mice treated with DNCB are intragastrically administered with 2-FL, OPN or 2-FL plus OPN from day 0 to day 27. The mice in the vehicle and another DNCB groups are given an equal volume of physiological saline.
The severity of dorsal skin lesions were assessed macroscopically according to the following four symptoms: edema, erythema/hemorrhage, excoriation/erosion, and scarring/dryness, and the sum of the individual scores (0, no symptoms; 1, mild; 2, moderate; 3, severe), ranging from 0 to 12, was defined as the final dermatitis scores. These visual assessments were performed every two day and by at least two independent investigators.
FIG. 1: OPN and 2-FL alleviation of AD-like symptoms induced—as per dermatitis score evaluation—by DNCB in BALB/c mice. […]

[3] = tested on: cytokine mRNA expression in skin (TSLP, IL-4, IL-17, IFN-γ, T-bet, GATA3, ROR-γt); assay: Quantitative RT-PCR of cytokine and transcription factor mRNA in dorsal skin of DNCB-treated mice; assay type: in vivo, BALB/c mice; conditions: dorsal skin / skin lesions, ratio to GAPDH, vs saline-treated/control AD mice
Description: Total RNA was isolated from the dorsal skin of the control and treated BALB/c mice. Subsequently, cytokine mRNA expression in the skin sample was measured by RT-PCR.
Balb/c mice were purchased from the Animal Center of Southern Medical University (Guangzhou, China). The animals were maintained under a 12-h light/dark cycle in a specific pathogen-free animal facility at a controlled temperature (20-25° C.) and humidity (50±5%). All mice were fed with regular diet and autoclaved water. All animal experiments in this study were approved by the Welfare and Ethical Committee for Experimental Animal Care of Southern Medical University. […]
Total RNA was isolated from dorsal skin using TRIzol (TransGen Biotech, Beijing, China) according to manufacturer's instruction. 500 ng RNA was quantified for the reverse transcription reaction with TranScript All-in-One First-Strand cDNA Synthesis SuperMix (TransGen Biotech, Beijing, China) in a total volume of 10 μL. Quantitative real-time PCR (RT-PCR) analysis of gene expression was performed using TransStart Green qPCR SuperMix (TransGen Biotech, Beijing, China). […]
FIGS. 5 (a), (b) and (c): Relative mRNA expression levels of Th2-associated cytokines ((a) TSLP and (b) IL-4) and IL17a, as measured by RT-PCR and expressed as a ratio of GAPDH, extracted from BALB/c mice treated with DNCB in the presence and absence of OPN and/or 2FL. *p<0.05, **p<0.01. […]

[4] = tested on: scratching behaviour (pruritus) in DNCB-treated BALB/c mice; assay: Assessment of scratching behaviour in DNCB-treated BALB/c mice; assay type: in vivo; conditions: oral administration, FIG. 2, combination esp. trials 7 & 8
Description: as §1, with “(days-27).” for “(days-27). OPN and 2-FL were dissolved in 0.9% normal saline.”
Mice were placed into cages for 1 h for habituation. After habituation, the number of scratching episodes for 15 min was counted macroscopically. A series of scratching movements made with the paw was counted as one scratching episode. The total scratching behaviour number was calculated within 15 min. […]

Substance | serum IgE concentration [1] | severity of DNCB-induced AD-like symptoms [2] | AD score (dermatitis score, AD-like symptoms) [2] | IL-17 mRNA expression in skin [3] | scratching behaviour (number of scratching episodes for 15 min) [4]
2′-fucosyllactose [2-FL] | 621.27 ± 46.79 µg/mL | ameliorated | reduced substantially | significantly lower | reduced scratching behaviour
osteopontin [OPN] | 388.22 ± 61.28 µg/mL | ameliorated | reduced substantially | significantly lower | reduced scratching behaviour

From patent US20210236605A1, “COMBINATIONS OF OSTEOPONTIN AND 2'-FUCOSYLLACTOSE FOR USE AS MEDICAMENTS” (HEALTH AND HAPPINESS (H&H) HONG KONG LIMITED, priority 2018, published 2021)
